A short description of one data set: log P from HPLC-MS, no method note printed. The class given is physicochemical. As to conditions: method not given.
In turn, `Cc1nc(C(N)=O)c(C(F)(F)F)c(C(F)(F)C(F)(F)F)n1` [2-Methyl-6-(pentafluoroethyl)-5-(trifluoromethyl)pyrimidine-4-carboxamide] gave a chromatographic logP of 2.33.
With `Cn1nc(OC(F)F)c(Cl)c1C(=O)O` [4-Chloro-3-(difluoromethoxy)-1-methyl-1H-pyrazole-5-carboxylic acid], the chromatographic logP was 1.5.
`Cn1nc(C(C)(C)F)c(C(F)(F)F)c1C(=O)O` [3-(2-Fluoropropan-2-yl)-1-methyl-4-(trifluoromethyl)-1H-pyrazole-5-carboxylic acid] registered a chromatographic logP of 1.43.
Molecule `COC(=O)c1c(F)c(OCC(F)(F)F)nn1C` [Methyl 4-fluoro-1-methyl-3-(2,2,2-trifluoroethoxy)-1H-pyrazole-5-carboxylate] showed a chromatographic logP of 2.79.
Consider `CCOC(=O)c1sc(C(F)(F)C(F)(F)F)nc1C(F)(F)F` [Ethyl 2-(pentafluoroethyl)-4-(trifluoromethyl)-1,3-thiazole-5-carboxylate], for which the chromatographic logP was 4.36.
In the case of `Cn1nc(OC(F)F)c(I)c1C(=O)O` [4-Iodo-3-(difluoromethoxy)-1-methyl-1H-pyrazole-5-carboxylic acid], the chromatographic logP was 1.64.
As to `Cn1nc(OC(F)F)c(Br)c1C(=O)O` [4-Bromo-3-(difluoromethoxy)-1-methyl-1H-pyrazole-5-carboxylic acid], the chromatographic logP worked out at 1.52.
Turning to `COC(=O)c1c(Cl)c(OC(F)F)nn1C` [Methyl 4-chloro-3-(difluoromethoxy)-1-methyl-1H-pyrazole-5-carboxylate], the chromatographic logP was found to be 2.57.
Still for that read-out and setting: under `CCOC(=O)c1c(C(F)(F)F)c(CO)nn1C` [Ethyl-3-(hydroxymethyl)-1-methyl-4-(trifluoromethyl)-1H-pyrazole-5-carboxylate] stands 1.74; under `Cn1nc(OCC(F)(F)F)c(I)c1C(=O)O` [4-Iodo-1-methyl-3-(2,2,2-trifluoroethoxy)-1H-pyrazole-5-carboxylic acid], 2.11; under `CCOC(=O)c1c(C(F)(F)F)c(C(F)F)nn1C` [Ethyl 3-(difluoromethyl)-1-methyl-4-(trifluoromethyl)-1H-pyrazole-5-carboxylate], 3.05.
The molecule `CCOC(=O)c1c(C(F)(F)F)c(C2CC2)nn1C` [Ethyl 3-cyclopropyl-1-methyl-4-(trifluoromethyl)-1H-pyrazole-5-carboxylate] yielded a chromatographic logP of 3.66.
Regarding `COC(=O)c1cc(-c2ccc(C(F)(F)F)cc2)nn1C` [Methyl 1-methyl-3-[4-(trifluoromethyl)phenyl]-1H-pyrazole-5-carboxylate], the chromatographic logP is 3.82.
In the case of `COC(=O)c1c(I)c(-c2ccc(C(F)(F)F)cc2)nn1C` [Methyl 4-iodo-1-methyl-3-[4-(trifluoromethyl)phenyl]-1H-pyrazole-5-carboxylate], the chromatographic logP was 4.23.
Molecule `O=C(O)c1cnc(C(F)(F)C(F)(F)F)nc1C(F)(F)C(F)(F)F` [2,4-Bis(pentafluoroethyl)pyrimidine-5-carboxylic acid] returned a chromatographic logP of 2.24.
`Cn1nc(C2CC2)c(C(F)(F)F)c1C(=O)O` [3-Cyclopropyl-1-methyl-4-(trifluoromethyl)-1H-pyrazole-5-carboxylic acid] registered a chromatographic logP of 1.74.
Regarding `Cn1nc(OC(F)F)cc1C(=O)O` [3-(Difluoromethoxy)-1-methyl-1H-pyrazole-5-carboxylic acid], the chromatographic logP is 1.15.
As to `Cn1nc(C2CC2)c(Br)c1C(=O)O` [4-Bromo-3-cyclopropyl-1-methyl-1H-pyrazole-5-carboxylic acid], the chromatographic logP came out at 1.76.

A further data set in a line: logP by HPLC on a C18 phase inversion column, EEC Directive 79/831 Annex V.A8, method b) (HP1100, 5-95% acetonitrile in 1.70 min). As to conditions: HPLC method b). The class given is physicochemical. As to the method: ^b) Note regarding the determination of the log P values and mass detection: The log P values given were determined in accordance with EEC Directive 79/831 Annex V.A8 by HPLC (High Performance Liquid Chromatography) on a phase inversion column (C18). HP1100; 50*4.6 Zorbax Eclipse Plus C18 1.8 micron; eluent A: acetonitrile (0.1% formic acid); eluent B: water (0.08% formic acid); linear gradient from 5% acetonitrile to 95% acetonitrile in 1.70 min, then 95% acetonitrile for a further 1.00 min; oven temperature 55° C.; flow: 2.0 ml/min. The mass detection is carried out via the mass detector Micromass ZQ2000 from Waters.
Turning to `CC(C)[C@H](NC(=O)c1cc(NC(=O)c2c(C(F)(F)F)c(C(F)(F)C(F)(F)F)nn2C)ccc1Cl)C(F)(F)F` [Ik-310], the logP was 3.89^b).
As for `CCOCCNC(=O)c1cc(NC(=O)c2c(C(F)(F)F)c(C(F)(F)C(F)(F)F)nn2C)ccc1Cl` [Ik-53], the logP was 3.28^b).
As to `Cn1nc(C(F)(F)C(F)(F)F)c(C(F)(F)F)c1C(=O)Nc1ccc(Cl)c(C(=O)NC2CCCC2)c1` [Ik-39], the logP is recorded as 3.78^b).
`CC(CF)NC(=O)c1cc(NC(=O)c2c(C(F)(F)F)c(C(F)(F)C(F)(F)F)nn2C)ccc1Cl` (stereo not shown) [Ik-290]: the logP is on record as 3.28^b).
In the case of `CC(CC(F)(F)F)NC(=O)c1cc(NC(=O)c2c(C(F)(F)F)c(C(F)(F)C(F)(F)F)nn2C)ccc1Cl` (stereo not shown) [Ik-299], the logP is 3.63^b).
Consider `Cn1nc(C(F)(F)C(F)(F)F)c(C(F)(F)F)c1C(=O)Nc1ccc(Cl)c(C(=O)NCCC(F)(F)F)c1` [Ik-291], for which the logP is reported as 3.53^b).
On to `CC(NC(=O)c1cc(NC(=O)c2c(C(F)(F)F)c(C(F)(F)C(F)(F)F)nn2C)ccc1Cl)c1ccccc1F` (stereo not shown) [Ik-284], for which the logP is reported as 4.00^b).
As to `C=C(C)CNC(=O)c1cc(NC(=O)c2c(C(F)(F)F)c(C(F)(F)C(F)(F)F)nn2C)ccc1Cl` [Ik-50], the logP is 3.53^b).
In the case of `Cn1cc(C(F)(F)F)nc1C(NC(=O)c1cc(NC(=O)c2c(C(F)(F)F)c(C(F)(F)C(F)(F)F)nn2C)ccc1Cl)C(F)(F)F` (stereo not shown) [Ik-276], the logP is recorded as 4.00^b).
Take `Cn1nc(C(F)(F)C(F)(F)F)c(C(F)(F)F)c1C(=O)Nc1ccc(Cl)c(C(=O)NC(C)(C)CC(F)(F)F)c1` [Ik-300]: the logP is 4.00^b).
Turning to `CCC1CC1NC(=O)c1cc(NC(=O)c2c(C(F)(F)F)c(C(F)(F)C(F)(F)F)nn2C)ccc1Cl` (stereo not shown) [Ik-286], the logP is reported as 3.84^b).
Still for that read-out and setting: the figure for `Cc1ccccc1CNC(=O)c1cc(NC(=O)c2c(C(F)(F)F)c(C(F)(F)C(F)(F)F)nn2C)ccc1Cl` [Ik-305] is 3.89^b).
For `CC(C)N(C)C(=O)c1cc(NC(=O)c2c(C(F)(F)F)c(C(F)(F)C(F)(F)F)nn2C)ccc1Cl` [Ik-35], the logP is listed as 3.73^b).
On to `Cn1nc(C(F)(F)C(F)(F)F)c(C(F)(F)F)c1C(=O)Nc1ccc(Cl)c(C(=O)NCc2ncn[nH]2)c1` [Ik-29], for which the logP is listed as 2.31^b).
Regarding `CCCNC(=O)c1cc(NC(=O)c2c(C(F)(F)F)c(C(F)(F)C(F)(F)F)nn2C)ccc1Cl` [Ik-30], the logP was 3.23^b).
Still for that read-out and setting: under `C/C(Cl)=C/CNC(=O)c1cc(NC(=O)c2c(C(F)(F)F)c(C(F)(F)C(F)(F)F)nn2C)ccc1Cl` [Ik-295] stands 3.73^b); under `CC(NC(=O)c1cc(NC(=O)c2c(C(F)(F)F)c(C(F)(F)C(F)(F)F)nn2C)ccc1Cl)C1(Cl)CC1` (stereo not shown) [Ik-288], 4.05^b).
Regarding `Cn1nc(C(F)(F)C(F)(F)F)c(C(F)(F)F)c1C(=O)Nc1ccc(Cl)c(C(=O)NCC2CC2(C)C)c1` (stereo not shown) [Ik-46], the logP is 4.11^b).
On to `Cn1nc(C(F)(F)C(F)(F)F)c(C(F)(F)F)c1C(=O)Nc1ccc(Cl)c(C(=O)NC2CC2c2ccccc2)c1` (stereo not shown) [Ik-47], for which the logP was 4.00^b).
`CSCC(C)(C)NC(=O)c1cc(NC(=O)c2c(C(F)(F)F)c(C(F)(F)C(F)(F)F)nn2C)ccc1Cl` [Ik-289]: the logP is given as 4.05^b).
Still for that read-out and setting: the figure for `Cn1nc(C(F)(F)C(F)(F)F)c(C(F)(F)F)c1C(=O)Nc1ccc(Cl)c(C(=O)NCc2ccc(F)c(F)c2)c1` [Ik-309] is 3.94^b); for `Cn1nc(C(F)(F)C(F)(F)F)c(C(F)(F)F)c1C(=O)Nc1ccc(Cl)c(C(=O)NCc2ccccc2F)c1` [Ik-52] it is 3.73^b); for `COCC(C)(C#N)NC(=O)c1cc(NC(=O)c2c(C(F)(F)F)c(C(F)(F)C(F)(F)F)nn2C)ccc1Cl` (stereo not shown) [Ik-275] it is 3.37^b).
For the molecule `C[C@@H](NC(=O)c1cc(NC(=O)c2c(C(F)(F)F)c(C(F)(F)C(F)(F)F)nn2C)ccc1Cl)C(F)(F)F` [Ik-307], the logP is listed as 3.78^b).
`Cn1nc(C(F)(F)C(F)(F)F)c(C(F)(F)F)c1C(=O)Nc1ccc(Cl)c(C(=O)NC2CC2(F)F)c1` (stereo not shown) [Ik-6]: the logP was 3.33^b).
For the molecule `Cc1ccc(CNC(=O)c2cc(NC(=O)c3c(C(F)(F)F)c(C(F)(F)C(F)(F)F)nn3C)ccc2Cl)cc1` [Ik-306], the logP is given as 3.94^b).
On to `Cn1nc(C(F)(F)C(F)(F)F)c(C(F)(F)F)c1C(=O)Nc1ccc(Cl)c(C(=O)NCC2(C)COC2)c1` [Ik-45], for which the logP is given as 2.98^b).
Turning to `Cn1nc(C(F)(F)C(F)(F)F)c(C(F)(F)F)c1C(=O)Nc1ccc(Cl)c(C(=O)NCc2ccc(Cl)cc2)c1` [Ik-283], the logP is recorded as 4.05^b).
Same read-out and setting: under `Cn1nc(C(F)(F)C(F)(F)F)c(C(F)(F)F)c1C(=O)Nc1ccc(Cl)c(C(=O)NCc2c(F)cccc2F)c1` [Ik-37] stands 3.73^b).
Same read-out and setting: under `CC(O)CNC(=O)c1cc(NC(=O)c2c(C(F)(F)F)c(C(F)(F)C(F)(F)F)nn2C)ccc1Cl` (stereo not shown) [Ik-33] stands 2.65^b); under `Cn1nc(C(F)(F)C(F)(F)F)c(C(F)(F)F)c1C(=O)Nc1ccc(Cl)c(C(=O)NCc2ccc(F)cc2)c1` [Ik-312], 3.73^b); under `Cn1nc(C(F)(F)C(F)(F)F)c(C(F)(F)F)c1C(=O)Nc1ccc(Cl)c(C(=O)NCc2cc(F)ccc2F)c1` [Ik-54], 3.84^b).
In the case of `Cn1nc(C(F)(F)C(F)(F)F)c(C(F)(F)F)c1C(=O)Nc1ccc(Cl)c(C(=O)NC2CC=CC2)c1` [Ik-287], the logP was 3.63^b).
With `Cn1nc(C(F)(F)C(F)(F)F)c(C(F)(F)F)c1C(=O)Nc1ccc(Cl)c(C(=O)NCc2ccc(F)cc2F)c1` [Ik-308], the logP was 3.94^b).
Turning to `CCC(NC(=O)c1cc(NC(=O)c2c(C(F)(F)F)c(C(F)(F)C(F)(F)F)nn2C)ccc1Cl)C(F)(F)F` (stereo not shown) [Ik-297], the logP is 3.89^b).
Still for that read-out and setting: under `CC(NC(=O)c1cc(NC(=O)c2c(C(F)(F)F)c(C(F)(F)C(F)(F)F)nn2C)ccc1Cl)c1cccc(F)c1` (stereo not shown) [Ik-303] stands 3.89^b).
As to `Cc1c(C(F)(F)C(F)(F)F)nn(C)c1C(=O)Nc1ccc(Cl)c(C(=O)NCc2ccccc2)c1` [Ik-271], the logP is recorded as 3.42^b).

By chromatographic logP is commonly meant lipophilicity estimated from chromatographic retention. A low value points to lower lipophilicity.

For the origin of these results see patent US8946234B2, “Halogen-substituted compounds” (Bayer CropScience AG, priority 2008, dated 2015).
